The results in this text go back to US20150018299A1, “TREATMENT OF LIVER CONDITIONS” (CAN-FITE BIOPHARMA LTD., priority 2012, published 2015).

“And” between values parts separate entries of the source, which are not always exact repeats. Identical values can stand only once. Some results are limits rather than exact numbers.

For series [1] the following is noted: human, in vivo. From the text: The number and percentage of subjects who experienced one or more AEs were summarized by dose level group, relationship to study drug, and severity. AEs were coded using Medical Dictionary for Regulatory Activities (MedDRA) terminology. Clinical laboratory parameters were summarized using descriptive statistics, by post-dosing shifts relative to baseline, and data listings of clinically significant abnormalities. Vital signs and ECG data were summarized by changes from baseline values at each dose level using descriptive statistics. Pharmacokinetic parameters, including AUC (0-8 h), Cmax, Cmin, and Tmax was estimated. Comparisons across dose levels were made to assess proportionality. Overall survival was calculated using the Kaplan-Meier method.

Series [2] concerns patients with advanced hepatocellular carcinoma (HCC). The series can be described thus: Phase 1-2 dose-escalation study of oral CF102: overall survival and clinical activity. Type of series: in vivo, human. The note with it: for Survival from start of CF102: individual subjects. The text has this: All patients were over the age of 18 with incurable advanced, refractory, or metastatic hepatocellular carcinoma (HCC), documented by cytology and/or histology for patients without underlying cirrhosis or according to the American Association for the Study of Liver Diseases Practice Guideline algorithm for patients with underlying cirrhosis. All patients had measurable disease, according to Response Evaluation Criteria in Solid Tumors (RECIST); […] The trial employed a conventional “three plus three” design. […] At the first stage nine patients were enrolled for the dose escalation phase and then additional nine were enrolled for the dose confirmation phase. Furthermore, nine patients have undergone intra-subject dose escalation per protocol. Subjects returned for a follow-up visit 28 days after completion of the last dose of study drug. […] Safety data analysis was conducted on all subjects who received at least one dose of CF102. The number and percentage of subjects who experienced one or more AEs were summarized by dose level group, relationship to study drug, and severity. AEs were coded using Medical Dictionary for Regulatory Activities (MedDRA) terminology. Clinical laboratory parameters were summarized using descriptive statistics, by post-dosing shifts relative to baseline, and data listings of clinically significant abnormalities. Vital signs and ECG data were summarized by changes from baseline values at each dose level using descriptive statistics. Pharmacokinetic parameters, including AUC (0-8 h), Cmax, Cmin, and Tmax was estimated. Comparisons across dose levels were made to assess proportionality. Overall survival was calculated using the Kaplan-Meier method.

The subject of series [3] is patients with hepatocellular carcinoma (HCC). The experiment in a line: Phase 1-2 study of oral CF102: liver function parameters over 6 months. Particulars: serum, over a 6 months period. Type of series: in vivo, human. The text has this:
The trial employed a conventional “three plus three” design. […] At the first stage nine patients were enrolled for the dose escalation phase and then additional nine were enrolled for the dose confirmation phase. Furthermore, nine patients have undergone intra-subject dose escalation per protocol. Subjects returned for a follow-up visit 28 days after completion of the last dose of study drug.

`CNC(=O)[C@H]1O[C@@H](n2cnc3c(NCc4cccc(I)c4)nc(Cl)nc32)[C@H](O)[C@@H]1O` [CF102, 2-Chloro-N^6-(3-iodobenzyl)-adenosine-5′-N-methyluronamide] gave a Plasma levels in series [1] of over 0.66 nM. The “Overall survival, range” value was 3.5-13.2 months in series [2] (12 sorafenib failures), 3.5-27.3 months in series [2] (all 18 subjects) and 7.0-13.2 months in series [2] (five Child-Pugh B patients). Further, the “Median overall survival (OS)” value in series [2] (12 sorafenib failures, CF102 as second line therapy) was 7 months and 7.0 months; in series [2] (all 18 subjects) it was 7.82 months and 7.8 months; in series [2] (five Child-Pugh B patients) it was 8.1 months. Also, the “Survival from start of CF102” value was 7.1 months and 5.6 months and 13.2** months and 7.0 months and 8.2 months and 27.3* months in series [2] (starting dose 1 mg BID oral); 4.1 months and 7.1 months and 10.6 months and 10.7 months and 3.5 months and 4.2 months in series [2] (starting dose 5 mg BID oral); 8.3 months and 8.1 months and 7.6 months and 7.0 months and 12.6 months and 8.4 months in series [2] (starting dose 25 mg BID oral). Further, the “Period of Stable Disease (SD) by RECIST criteria” value in series [2] (one subject) worked out at 10 months. For the same compound, the “Time receiving CF102” value in series [2] (one subject, continuing on drug) is recorded as at least 41 months. Besides, the “Liver function parameters: ALT, AST, albumin, bilirubin, prothrombin time, ALK phosphatase, α-fetoprotein” value in series [3] was “remained stable”.
